Series [1] deals with rabbits. As to the kind of experiment: Electrically induced carotid artery thrombosis in anesthetized rabbits (clot inhibition, carotid blood flow). Type of series: in vivo. The protocol:
Rabbits were anesthetized with ketamine (50 mg/kg i.m.) and xylazine (10 mg/kg i.m.) and then surgically prepared with arterial and venous catheters. An electromagnetic flow probe was placed on a segment of an isolated carotid artery to monitor blood flow. Thrombus formation was induced by electrical stimulation of the carotid artery for 3 min at 4 mA using an external stainless-steel bipolar electrode. Carotid blood flow was measured continuously over a 45-min period to monitor thrombus occlusion. Compound A was infused intravenously whereas clopidogrel was infused into the portal vein. Both agents were infused 1 hour prior to the electrical stimulation of the carotid artery and continuously during the 45-min period.
(§1) The same experimental protocol as described in Example 1 was used in this study. Aspirin was infused intravenously whereas clopidogrel was infused into the portal vein. Both agents were infused 1 hour prior to the electrical stimulation of the carotid artery and the cuticle transection, and continuously to the end of the experiment.
The same experimental protocol as described in Example 1 was used in this study. Aspirin and Compound A were infused intravenously.

The subject of series [2] is rabbits. In words: Cuticle bleeding time in anesthetized rabbits. The following applies: clopidogrel 1 mg/kg/hr infused into the portal vein, compared to the vehicle-group. The protocol: The bleeding time effects of Compound A, clopidogrel, and their combination were examined in anesthetized rabbits. Rabbits were anesthetized as described above and their hind paws were shaved. A standard cut was made at the apex of the cuticle with a razor blade. Blood was allowed to flow freely by keeping the bleeding site in contact with 37° C. warm lactated Ringer's solution. Bleeding time was defined as the time after transection when bleeding was ceased. It was measured by averaging the bleeding time of three nail cuticles in the control and treatment period. Percentage change in cuticle bleeding time is calculated by comparing the bleeding time taken in the treatment period to the control bleeding time. Compounds were infused as described above.
as §1

Setting [3] is: Compound A 0.1 mg/kg/hr infused intravenously.
[4] abbreviates: aspirin 0.3 mg/kg/hr infused intravenously.
Setting [5] is: clopidogrel 1 mg/kg/hr infused into the portal vein.

With `CN(C)Cc1nccn1-c1ccc(NC(=O)c2cc(C(F)(F)F)nn2-c2ccc3onc(N)c3c2)c(F)c1.Cl` [Compound A, 1-(3′-aminobenzisoxazol-5′-yl)-3-trifluoromethyl-5-[[4-[(2′-dimethylaminomethyl)imidazol-1′-yl]-2fluorophenyl]aminocarbonyl]pyrazole-hydrochloric acid salt], in series [1] (setting [3]), the carotid blood flow result is reported as “increase in carotid blood flow” and the “inhibition of clot formation” value is listed as “moderate inhibition of clot formation”.
Consider `CC(=O)Oc1ccccc1C(=O)O` [aspirin, acetylsalicyclic acid], for which, in series [1] (setting [4]), the carotid blood flow entry is reported as “not effective” and the “inhibition of clot formation” value is “not effective in inhibiting the formation of clot”.
Regarding `COC(=O)[C@H](c1ccccc1Cl)N1CCc2sccc2C1` [clopidogrel, Clopidogrel], the bleeding time entry in series [2] is reported as “increased the bleeding time significantly”. Also, in series [1] (setting [5]), the carotid blood flow result was “increase in carotid blood flow” and the “inhibition of clot formation” value was “moderate inhibition of clot formation”.

For the origin of these results see US7018990B2, “Combination of a factor Xa inhibitor and clopidogrel” (Bristol-Myers Squibb Company, priority 2002, dated 2006).
